Test results as given in US20200270232A1, “INHIBITORS OF INTEGRATED STRESS RESPONSE PATHWAY” (Praxis Biotech LLC, priority 2019, published 2020).

Columns and labels:
[1] = system: ATF4; experiment: ATF4 expression inhibition assay (ATF4 luciferase reporter); type: cell-based; details: Homo sapiens, HEK-293T; HEK293T cells carrying the ATF4 luciferase reporter, 100 nM thapsigargin (Tg), 3 hours; read-out: ATF4 inhbition IC50
Protocol: The ATF4 reporter was prepared by fusing the human full length 5′UTR of ATF4 (NCBI Accession No. BC022088.2) upstream of the firefly luciferase coding sequence lacking the initiator methionine. The fused sequence was cloned into pLenti-EF1a-C-Myc-DDK-IRES-Puro cloning vector (Origen # PS 100085) using standard methods. Virus production was carried out by using Lenti-X™ Packaging Single Shots Protocol (Clonetech #631276). Viral particles were used to transduce HEK293T cells (ATCC # CRL-3216, ATCC Manassas, Va.), which were subsequently selected with puromycin to generate stable cell line. Cells were maintained at 37° C. and 5% CO2 in DMEM-F12 (Hyclone # SH30023.02) supplemented with 10% heat-inactivated fetal bovine serum (Gibco #16000-044), 2 mM L-glutamine (Gibco #25030-081), 100 U/ml penicillin, and 100 μg/ml streptomycin (Gibco #15140-122).
HEK293T cells carrying the ATF4 luciferase reporter were plated on 96-well plates (Nunc) at 10,000 cells per well. Cells were treated two days after seeding with 100 nM thapsigargin (Tg) (Sigma-Aldrich # T9033) in the presence of different concentrations of selected compounds ranging from 1 nM to 10 μM. Cells without treatment or cells treated with Tg alone were used as controls. Assay plates containing cells were incubated for 3 hours at 37° C.
Luciferase reactions were performed using Luciferase Assay System (Promega # E1501) as specified by the manufacturer. Luminescence was read with an integration time of 1 s and a gain of 110 using a Cytation-5 multi-mode microplate reader (BioTek). Relative luminescence units were normalized to Tg treatment (0% inhibition) and untreated cells (100% inhibition) and the percentage of ATF4 inhibition was calculated.
Accordingly, inhibition of ATF4 expression as a result of the test compound indicates suppression of the ISR pathway.

[2] = system: Chinese hamster ovary (CHO) cells; experiment: Protein translation assay (puromycin labelling, western blot); type: cell-based; details: 2 hours, media alone = 100%; for activity at 1 µM: Cricetulus griseus, unstressed CHO cells (without Tg), 1 μM test compound, read-out: % Protein synthesis relative to untreated (1 μM test compound); for % Recovery of protein synthesis (1 μM test compound): stressed CHO cells, 300 nM Tg, Tg alone = 0%
Protocol: Chinese hamster ovary (CHO) cells were maintained at 37° C. and 5% C02 in Dulbecco's Modified Eagle's Media (DMEM) supplemented with 10% fetal bovine serum, 2 mM L-glutamine, 100 U/ml penicillin, and 100 μg/ml streptomycin. After reaching 80% of confluence, cells were detached and seeded on 6 well plates in complete media, allowed to recover overnight and treated for 2 hours with 1 μM of the test compound (to assess protein synthesis levels in unstressed condition), or for 2 hours with 300 nM Tg in the presence of 1 μM of the test compound (to assess the recovery of protein synthesis in a stressed condition). Cells with Tg alone were used as controls.
After the 2 hours treatments, media were replaced by adding 10 μg/ml puromycin (Sigma Aldrich # P8833) in complete media for 30 min. Media were removed and cells were lysed with SDS-PAGE lysis buffer. Lysates were transferred to 1.5 ml tubes and sonicated for 3 min and total protein amount were quantified using BCA Protein Assay Kit (Pierce). Equal amount of protein (30 μg) was loaded on SDS-PAGE gels. Proteins were transferred onto 0.2 μm PVDF membranes (BioRad) and probed with primary antibodies diluted in Tris-buffered saline supplemented with 0.1% Tween 20 (Merck # S6996184 505) and 3% bovine serum albumin (Rockland # BSA-50).
Puromycin (12D10) (Merck # MABE343) and β-actin (Sigma Aldrich # A5441) antibodies were used as primary antibody. A HRP-conjugated secondary antibody (Rockland) was employed to detect immune-reactive bands using enhanced chemiluminescence (ECL Western Blotting Substrate, Pierce). Quantification of protein bands was done by densitometry using ImageJ software.
Percent increase of protein synthesis in unstressed cells (without Tg treatment) in the presence of media alone or certain test compounds is shown in Table 3. The percentage levels were normalized to the media alone condition, which correspond to 100% protein synthesis.
Percent recovery of protein synthesis in stressed cells (with Tg treatment) due to the test compounds at 1 μM is also shown in Table 3. The levels were normalized to the media alone and Tg alone conditions, which correspond to 100% and 0% respectively.

IC50 [1] [nM] | SMILES | activity at 1 µM [2] [%] | % Recovery of protein synthesis (1 μM test compound) [2] [%]
> 100 | O=C(COc1ccc(Cl)c(F)c1)NCC1CCN(C(=O)c2ccc3cc(Cl)ccc3n2)C1 (stereo not shown) [Compound 5, 2-(4-chloro-3-fluorophenoxy)-N-((1-(6-chloroquinoline-2-carbonyl)pyrrolidin-3-yl)methyl)acetamide] | 94.2 | 0.00
> 1000 | O=C(N[C@H]1CC[C@@H](NCC(O)COc2ccc(Cl)c(F)c2)C1)c1cc2cc(Cl)ccc2o1 (stereo partly drawn) [Compound 21, 5-chloro-N-((1S,3R)-3-((3-(4-chloro-3-fluorophenoxy)-2-hydroxypropyl)amino)cyclopentyl)benzofuran-2-carboxamide] | 141 | 54.6
102 | O=C(COc1ccc(Cl)c(F)c1)N[C@@H]1CC[C@H](NC(=O)c2cc3cc(Cl)ccc3o2)C1 [Compound 17, 5-chloro-N-((1S,3R)-3-(2-(4-chloro-3-fluorophenoxy)acetamido)cyclopentyl)benzofuran-2-carboxamide] | 78.4 | 22
> 1000 | O=C(NCC1CCN(CC(O)COc2ccc(Cl)c(F)c2)C1)c1cc2cc(Cl)ccc2o1 (stereo not shown) [Compound 8, 5-chloro-N-((1-(3-(4-chloro-3-fluorophenoxy)-2-hydroxypropyl)pyrrolidin-3-yl)methyl)benzofuran-2-carboxamide] | 107 | 31.57
178 | O=C(N[C@H]1CC[C@H](NCC(O)COc2ccc(Cl)c(F)c2)C1)c1cc2cc(Cl)ccc2o1 (stereo partly drawn) [Compound 18, 5-chloro-N-((1S,3S)-3-((3-(4-chloro-3-fluorophenoxy)-2-hydroxypropyl)amino)cyclopentyl)benzofuran-2-carboxamide] | 158 | –
> 100 | O=C(COc1ccc(Cl)c(F)c1)NCC1CCN(C(=O)c2cc3cc(Cl)ccc3o2)C1 (stereo not shown) [Compound 6, 2-(4-chloro-3-fluorophenoxy)-N-((1-(5-chlorobenzofuran-2-carbonyl)pyrrolidin-3-yl)methyl)acetamide] | 81.2 | 0.00
> 1000 | O=C(NC1CCN(CC(O)COc2ccc(Cl)c(F)c2)C1)c1ccc2cc(Cl)ccc2n1 (stereo not shown) [Compound 53, 6-chloro-N-(1-(3-(4-chloro-3-fluorophenoxy)-2-hydroxypropyl)pyrrolidin-3-yl)quinoline-2-carboxamide] | 102 | 37.93
24.3 | O=C(N[C@H]1CC[C@H](NC[C@@H](O)COc2ccc(Cl)c(F)c2)C1)c1cc2cc(Cl)ccc2o1 [Compound 94, 5-chloro-N-((1S,3S)-3-(((R)-3-(4-chloro-3-fluorophenoxy)-2-hydroxypropyl)amino)cyclopentyl)benzofuran-2-carboxamide] | 169 | 298.3
< 1000 | O=C(COc1ccc(Cl)c(F)c1)NCC1CCC(NC(=O)c2ccc3cc(Cl)ccc3n2)C1 (stereo not shown) [Compound 85, 6-chloro-N-(3-((2-(4-chloro-3-fluorophenoxy)acetamido)methyl)cyclopentyl)quinoline-2-carboxamide] | 88 | –
< 100 | O=C(COc1ccc(Cl)c(F)c1)NCC1CCC(NC(=O)c2cc3cc(Cl)ccc3o2)C1 (stereo not shown) [Compound 86, 5-chloro-N-(3-((2-(4-chloro-3-fluorophenoxy)acetamido)methyl)cyclopentyl)benzofuran-2-carboxamide] | 94.2 | –
> 100 | O=C(COc1ccc(Cl)c(F)c1)N[C@@H]1CC[C@H](NC(=O)COc2ccc(Cl)c(F)c2)C1 [Compound 15, N,N′-((1R,3S)-cyclopentane-1,3-diyl)bis(2-(4-chloro-3-fluorophenoxy)acetamide)] | 110 | –
1240 | O=C(NC1CC[C@H](NC[C@H](O)COc2ccc(Cl)c(F)c2)C1)c1cc2cc(Cl)ccc2o1 (stereo partly drawn) [Compound 91, 5-chloro-N-((3S)-3-(((S)-3-(4-chloro-3-fluorophenoxy)-2-hydroxypropyl)amino)cyclopentyl)benzofuran-2-carboxamide] | 190 | 209.4
> 1000 | O=C(COc1ccc(Cl)c(F)c1)N[C@H]1CC[C@@H](NCC(O)COc2ccc(Cl)c(F)c2)C1 (stereo partly drawn) [Compound 2, 2-(4-chloro-3-fluorophenoxy)-N-((1S,3R)-3-((3-(4-chloro-3-fluorophenoxy)-2-hydroxypropyl)amino)cyclopentyl)acetamide] | 84.7 | 28.2
1000 | O=C(NCC1CCN(C[C@H](O)COc2ccc(Cl)c(F)c2)C1)c1ccc2cc(Cl)ccc2n1 (stereo partly drawn) [Compound 81, 6-chloro-N-((1-((S)-3-(4-chloro-3-fluorophenoxy)-2-hydroxypropyl)pyrrolidin-3-yl)methyl)quinoline-2-carboxamide] | 134 | 38.7
> 100 | O=C(NC1CCN(CC(O)COc2ccc(Cl)c(F)c2)C1)c1cc2cc(Cl)ccc2o1 (stereo not shown) [Compound 98, 5-chloro-N-(1-(3-(4-chloro-3-fluorophenoxy)-2-hydroxypropyl)pyrrolidin-3-yl)benzofuran-2-carboxamide] | 167 | 142.63
> 100 | O=C(COc1ccc(Cl)c(F)c1)NCC1CCN(C(=O)COc2ccc(Cl)c(F)c2)C1 (stereo not shown) [Compound 4, 2-(4-chloro-3-fluorophenoxy)-N-((1-(2-(4-chloro-3-fluorophenoxy)acetyl)pyrrolidin-3-yl)methyl)acetamide] | 76.1 | –
> 1000 | O=C(NCC1CCC(NCC(O)COc2ccc(Cl)c(F)c2)C1)c1cc2cc(Cl)ccc2o1 (stereo not shown) [Compound 33, 5-chloro-N-((3-((3-(4-chloro-3-fluorophenoxy)-2-hydroxypropyl)amino)cyclopentyl)methyl)benzofuran-2-carboxamide] | 147 | 101.1
> 100 | O=C(COc1ccc(Cl)c(F)c1)N[C@H]1CC[C@H](NCC(O)COc2ccc(Cl)c(F)c2)C1 (stereo partly drawn) [Compound 20, 2-(4-chloro-3-fluorophenoxy)-N-((1S,3S)-3-((3-(4-chloro-3-fluorophenoxy)-2-hydroxypropyl)amino)cyclopentyl)acetamide] | 123 | 52.5
> 1000 | O=C(NC1CCC(NC[C@H](O)COc2ccc(Cl)c(F)c2)C1)c1cc2cc(Cl)ccc2o1 (stereo partly drawn) [Compound 83, 5-chloro-N-(3-(((S)-3-(4-chloro-3-fluorophenoxy)-2-hydroxypropyl)amino)cyclopentyl)benzofuran-2-carboxamide] | 129 | 175.2
> 1000 | O=C(COc1ccc(Cl)c(F)c1)NCC1CCC(NCC(O)COc2ccc(Cl)c(F)c2)C1 (stereo not shown) [Compound 89, 2-(4-chloro-3-fluorophenoxy)-N-((3-((3-(4-chloro-3-fluorophenoxy)-2-hydroxypropyl)amino)cyclopentyl)methyl)acetamide] | 119 | 42.5
